Data from the supplement of paper PMC10733146.

Columns and labels:
Assay in all cases: viability relative to DMSO control (fraction); higher = less drug effect (more viable cells)
Details in all cases: 48 h
[1] = tested on: primary AML patient cells (S012)
Method in brief: (§1)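 Viability is given as CellTiter-Glo luminescence relative to the median of 16 inner DMSO wells. Fresh or cryopreserved primary mononuclear tumour cells from blood, bone marrow (both Ficoll-isolated) or processed lymph node were plated at 4 × 10^4 cells per well in 384-well plates against five pre-plated compound concentrations, one well each. Incubation lasted 48 h at 37 °C and 5% CO2 in RPMI-1640 with penicillin/streptomycin, L-glutamine and human serum.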

[2] = tested on: primary T-PLL patient cells (S008)
Method in brief: as §1

[3] = tested on: primary AML patient cells (S079)
Method in brief: as §1

[4] = tested on: primary AML patient cells (S056)
Method in brief: as §1

[5] = tested on: primary FL patient cells (S022)
Method in brief: as §1

[6] = tested on: primary AML patient cells (S009)
Method in brief: as §1

[7] = tested on: primary AML patient cells (S089)
Method in brief: as §1

[8] = tested on: primary AML patient cells (S091)
Method in brief: as §1

[9] = tested on: primary MCL patient cells (S053)
Method in brief: as §1

[10] = tested on: primary CLL patient cells (S031)
Method in brief: as §1

[11] = tested on: primary ALL patient cells (S048)
Method in brief: as §1

[12] = tested on: primary MCL patient cells (S068)
Method in brief: as §1

[13] = tested on: primary MCL patient cells (S041)
Method in brief: as §1

[14] = tested on: primary FL patient cells (S087)
Method in brief: as §1

[15] = tested on: primary AML patient cells (S072)
Method in brief: as §1

[16] = tested on: primary DLBCL patient cells (S082)
Method in brief: as §1

[17] = tested on: primary AML patient cells (S037)
Method in brief: as §1

[18] = tested on: primary MCL patient cells (S063)
Method in brief: as §1

With `Cc1sc2c(c1C)C(c1ccc(Cl)cc1)=N[C@@H](CC(=O)Nc1ccc(O)cc1)c1nnc(C)n1-2` [OTX015] the viability ([1]; 0.016 µM) was 0.989, the viability ([1]; 0.08 µM) was 0.84 and the viability ([1]; 0.4 µM) was 0.565. It also gave a viability ([1]; 2 µM) of 0.379, a viability ([1]; 10 µM) of 0.267 and a viability ([2]; 0.016 µM) of 1.02. For the same molecule, the viability ([2]; 0.08 µM) was 1.01, the viability ([2]; 0.4 µM) was 0.983 and the viability ([2]; 2 µM) was 0.996. It also gave a viability ([2]; 10 µM) of 1.02, a viability ([3]; 0.016 µM) of 0.812 and a viability ([3]; 0.08 µM) of 0.757. The viability ([3]; 0.4 µM) was 0.568, the viability ([3]; 2 µM) was 0.44 and the viability ([3]; 10 µM) was 0.403. The viability ([4]; 0.016 µM) was 0.932, the viability ([4]; 0.08 µM) was 0.885 and the viability ([4]; 0.4 µM) was 0.631. The viability ([4]; 2 µM) was 0.255, the viability ([4]; 10 µM) was 0.235 and the viability ([5]; 0.016 µM) was 0.981. The viability ([5]; 0.08 µM) was 0.971, the viability ([5]; 0.4 µM) was 0.955 and the viability ([5]; 2 µM) was 0.897. It also gave a viability ([5]; 10 µM) of 0.874, a viability ([6]; 0.016 µM) of 0.859 and a viability ([6]; 0.08 µM) of 0.752. For the same molecule, the viability ([6]; 0.4 µM) was 0.6, the viability ([6]; 2 µM) was 0.489 and the viability ([6]; 10 µM) was 0.457. The viability ([7]; 0.016 µM) was 0.894, the viability ([7]; 0.08 µM) was 0.848 and the viability ([7]; 0.4 µM) was 0.546. It also gave a viability ([7]; 2 µM) of 0.398, a viability ([7]; 10 µM) of 0.311 and a viability ([8]; 0.016 µM) of 0.741. For the same molecule, the viability ([8]; 0.08 µM) was 0.478, the viability ([8]; 0.4 µM) was 0.276 and the viability ([8]; 2 µM) was 0.25. The viability ([8]; 10 µM) was 0.254, the viability ([9]; 0.016 µM) was 0.972 and the viability ([9]; 0.08 µM) was 0.949. The viability ([9]; 0.4 µM) was 0.689, the viability ([9]; 2 µM) was 0.546 and the viability ([9]; 10 µM) was 0.477. It also gave a viability ([10]; 0.016 µM) of 0.983, a viability ([10]; 0.08 µM) of 0.927 and a viability ([10]; 0.4 µM) of 0.77. The viability ([10]; 2 µM) was 0.52, the viability ([10]; 10 µM) was 0.405 and the viability ([11]; 0.016 µM) was 1.1. For the same molecule, the viability ([11]; 0.08 µM) was 1.04, the viability ([11]; 0.4 µM) was 0.552 and the viability ([11]; 2 µM) was 0.305. It also gave a viability ([11]; 10 µM) of 0.241, a viability ([12]; 0.016 µM) of 0.856 and a viability ([12]; 0.08 µM) of 0.616. It also gave a viability ([12]; 0.4 µM) of 0.266, a viability ([12]; 2 µM) of 0.2 and a viability ([12]; 10 µM) of 0.184. It also gave a viability ([13]; 0.016 µM) of 1.01, a viability ([13]; 0.08 µM) of 1.01 and a viability ([13]; 0.4 µM) of 0.866. The viability ([13]; 2 µM) was 0.806, the viability ([13]; 10 µM) was 0.708 and the viability ([14]; 0.016 µM) was 1.02. The viability ([14]; 0.08 µM) was 1.01, the viability ([14]; 0.4 µM) was 0.913 and the viability ([14]; 2 µM) was 0.866. The viability ([14]; 10 µM) was 0.805, the viability ([15]; 0.016 µM) was 0.806 and the viability ([15]; 0.08 µM) was 0.826. It also gave a viability ([15]; 0.4 µM) of 0.604, a viability ([15]; 2 µM) of 0.375 and a viability ([15]; 10 µM) of 0.364. For the same molecule, the viability ([16]; 0.016 µM) was 0.872, the viability ([16]; 0.08 µM) was 0.674 and the viability ([16]; 0.4 µM) was 0.244. It also gave a viability ([16]; 2 µM) of 0.116, a viability ([16]; 10 µM) of 0.0851 and a viability ([17]; 0.016 µM) of 1.11. It also gave a viability ([17]; 0.08 µM) of 0.851, a viability ([17]; 0.4 µM) of 1 and a viability ([17]; 2 µM) of 0.716. For the same molecule, the viability ([17]; 10 µM) was 0.97, the viability ([18]; 0.016 µM) was 1.14 and the viability ([18]; 0.08 µM) was 1.14. It also gave a viability ([18]; 0.4 µM) of 0.91, a viability ([18]; 2 µM) of 0.654 and a viability ([18]; 10 µM) of 0.566.
Work on `CCN1CCN(Cc2ccc(Nc3ncc(F)c(-c4cc(F)c5nc(C)n(C(C)C)c5c4)n3)nc2)CC1` yielded a viability ([1]; 0.024 µM) of 1.11, a viability ([1]; 0.12 µM) of 1.04 and a viability ([1]; 0.6 µM) of 1.07. For the same molecule, the viability ([1]; 3 µM) was 0.986, the viability ([1]; 15 µM) was 0.902 and the viability ([2]; 0.024 µM) was 1.04. It also gave a viability ([2]; 0.12 µM) of 0.981, a viability ([2]; 0.6 µM) of 1.08 and a viability ([2]; 3 µM) of 0.415. It also gave a viability ([2]; 15 µM) of 0.0352, a viability ([3]; 0.024 µM) of 0.969 and a viability ([3]; 0.12 µM) of 1.07. It also gave a viability ([3]; 0.6 µM) of 1.03, a viability ([3]; 3 µM) of 0.598 and a viability ([3]; 15 µM) of 0.0143. The viability ([4]; 0.024 µM) was 0.703, the viability ([4]; 0.12 µM) was 0.546 and the viability ([4]; 0.6 µM) was 0.444. It also gave a viability ([4]; 3 µM) of 0.136, a viability ([4]; 15 µM) of 0.0316 and a viability ([5]; 0.024 µM) of 1.12. It also gave a viability ([5]; 0.12 µM) of 1.01, a viability ([5]; 0.6 µM) of 1.06 and a viability ([5]; 3 µM) of 0.616. The viability ([5]; 15 µM) was 0.00982, the viability ([6]; 0.024 µM) was 1.05 and the viability ([6]; 0.12 µM) was 0.955. It also gave a viability ([6]; 0.6 µM) of 1.03, a viability ([6]; 3 µM) of 0.451 and a viability ([6]; 15 µM) of 0.0338. It also gave a viability ([7]; 0.024 µM) of 0.589, a viability ([7]; 0.12 µM) of 0.962 and a viability ([7]; 0.6 µM) of 0.576. It also gave a viability ([7]; 3 µM) of 0.0472, a viability ([7]; 15 µM) of 0.0221 and a viability ([8]; 0.024 µM) of 0.77. The viability ([8]; 0.12 µM) was 0.939, the viability ([8]; 0.6 µM) was 0.849 and the viability ([8]; 3 µM) was 0.569. The viability ([8]; 15 µM) was 0.333, the viability ([9]; 0.024 µM) was 0.896 and the viability ([9]; 0.12 µM) was 0.737. The viability ([9]; 0.6 µM) was 0.565, the viability ([9]; 3 µM) was 0.144 and the viability ([9]; 15 µM) was 0.0105. It also gave a viability ([10]; 0.024 µM) of 0.841, a viability ([10]; 0.12 µM) of 0.752 and a viability ([10]; 0.6 µM) of 0.771. It also gave a viability ([10]; 3 µM) of 0.238, a viability ([10]; 15 µM) of 0.00593 and a viability ([11]; 0.024 µM) of 0.546. It also gave a viability ([11]; 0.12 µM) of 0.443, a viability ([11]; 0.6 µM) of 0.263 and a viability ([11]; 3 µM) of 0.0396. It also gave a viability ([11]; 15 µM) of 0.00487, a viability ([12]; 0.024 µM) of 0.836 and a viability ([12]; 0.12 µM) of 0.934. The viability ([12]; 0.6 µM) was 1.09, the viability ([12]; 3 µM) was 0.0754 and the viability ([12]; 15 µM) was 0.0119. For the same molecule, the viability ([13]; 0.024 µM) was 0.938, the viability ([13]; 0.12 µM) was 0.812 and the viability ([13]; 0.6 µM) was 0.757. It also gave a viability ([13]; 3 µM) of 0.0785, a viability ([13]; 15 µM) of 0.00539 and a viability ([14]; 0.024 µM) of 1.01. For the same molecule, the viability ([14]; 0.12 µM) was 0.934, the viability ([14]; 0.6 µM) was 0.962 and the viability ([14]; 3 µM) was 0.763. The viability ([14]; 15 µM) was 0.0109, the viability ([15]; 0.024 µM) was 0.893 and the viability ([15]; 0.12 µM) was 1.03. It also gave a viability ([15]; 0.6 µM) of 0.73, a viability ([15]; 3 µM) of 0.251 and a viability ([15]; 15 µM) of 0.0132. For the same molecule, the viability ([16]; 0.024 µM) was 0.915, the viability ([16]; 0.12 µM) was 1.01 and the viability ([16]; 0.6 µM) was 1.19. The viability ([16]; 3 µM) was 0.543, the viability ([16]; 15 µM) was 0.0123 and the viability ([17]; 0.024 µM) was 0.952. For the same molecule, the viability ([17]; 0.12 µM) was 0.926, the viability ([17]; 0.6 µM) was 1.03 and the viability ([17]; 3 µM) was 0.71. It also gave a viability ([17]; 15 µM) of 0.255, a viability ([18]; 0.024 µM) of 1.08 and a viability ([18]; 0.12 µM) of 0.99. The viability ([18]; 0.6 µM) was 0.951, the viability ([18]; 3 µM) was 0.605 and the viability ([18]; 15 µM) was 0.00904.
